Usually pIC50 stands for −log10 of the IC50, conventionally taken in molar units.

pIC50: −log10 of the molar value.

Results on 26 compounds are retold here after patent US9120780B2, “Indole or indazole derivative or salt thereof” (TAIHO PHARMACEUTICAL CO., LTD., priority 2011, dated 2015).

For test [1], the target named is human HSP90 alpha protein (N-terminal, amino acids 2-236) (Homo sapiens (Human), UniProt P07900). Nature of the test: Measurement of HSP90-binding activity (AlphaScreen competitive assay, biotin-labeled geldanamycin). To be noted: inhibition of biotin-labeled geldanamycin binding to purified HSP90; read-out: HSP-binding activity IC50. The procedure: First, a solution of purified HSP90 was prepared as follows. […] The pET-HSP90N was introduced into Escherichia coli cells (BL21 (DE3), Stratagene Inc.), and then the Escherichia coli cells were cultured in the presence of 0.5 mM isopropyl-beta-D-thiogalactopyranoside (Sigma-Aldrich Corp.) at 37° C. for 4 hours. The Escherichia coli cells were collected, suspended in a lysis buffer (50 mM Tris-HCl (pH 7.5), 200 mM NaCl), and sonicated. The sonicated cell solution was centrifuged (40,000×g, 20 minutes) to obtain supernatant as a crude extract. The crude extract was fractionated by Ni Sepharose High Performance (GE Healthcare Japan Corporation) chromatography and HiLoad 26/60 Superdex 75 pg (GE Healthcare Japan Corporation), and the fraction in which HSP90 protein was concentrated was prepared so as to be a 50 mM Tris-HCl (pH 7.5)/20% glycerol solution as a purified HSP90 solution. The purified HSP90 solution was divided and stored at −80° C. until use.
The HSP90-binding activity was measured by an AlphaScreen competitive assay system. […] After reaction at room temperature for 2 hours, biotin-labeled geldanamycin was added to each reaction solution in an amount of 40 nM, followed by reaction for further 1 hour. […] After reaction in a dark place at room temperature for 1 hour, the fluorescence intensity in each well was measured with a multilabel plate reader, EnVision (Perkin Elmer, Inc.). The inhibition rate (%) of biotin-labeled geldanamycin binding by a compound of the present invention was determined by the following equation using the fluorescence signal of a test substance-free group (control) as a control. […] Inhibition rate (%)=(C−T)/C×100 T: signal in a well to which a test substance was added C: signal in a well to which no test substance was added
A general note: In Alpha technology, singlet oxygen from a donor bead excites a nearby acceptor bead.

In test [2] the test system is SK-BR-3 cells. The experiment in a line: Measurement of cell growth inhibition (crystal violet staining). It is filed as cell-based. The settings on record: Homo sapiens, 72 hours culture with test substance. The procedure: Cell growth was measured by a crystal violet staining method. […] The cells were cultured in a 5% CO2 incubator at 37° C. for 24 hours, and then test substances were added to the plate, followed by culturing for further 72 hours. […] The plate was left to stand at room temperature for 20 minutes for staining the cells. The plate was washed with water and dried, and 100 μL of a mixed solution of 0.05 M NaH2PO4 and ethanol (mixture in equal amounts) was added to each well. The absorbance at 540 nm was measured with a microplate reader (MTP-450, Corona Electric Co., Ltd.) as an index of the number of cells in each well. The inhibition rate (%) of cell growth by a compound of the present invention was determined by the following equation using the absorbance of a drug-untreated group (control) as a control. […] Inhibition rate (%)=(C−T)/C×100 T: absorbance in a well to which a test substance was added C: absorbance in a well to which no test substance was added

Consider `COc1ccc2ccn(-c3ccc(C(N)=O)c(NC4CCC(O)CC4)c3)c2c1` (stereo not drawn) [Comparative Example 1, reference compound], for which the pIC50 in test [1] was below 4.00. Still for that read-out and setting: the result for `COc1cccc2c1ccn2-c1ccc(C(N)=O)c(NC2CCC(O)CC2)c1` (stereo not drawn) [Comparative Example 2, reference compound] reads below 4.00; that for `COc1cc2ccn(-c3ccc(C#N)c(Nc4ccccc4)c3)c2cc1OC` [Comparative Example 3, reference compound], below 5.00. As to `COc1cc2ccn(-c3ccc(C(N)=O)c(Nc4ccccc4)c3)c2cc1OC` [Comparative Example 4, reference compound], the pIC50 in test [1] and in test [2] was below 5.00 each time. `COc1ccc2c(c1)cc(C)n2-c1ccc(C(N)=O)c(Nc2ccccc2)c1` [Comparative Example 5, reference compound]: the results for the pIC50 in test [1] and in test [2] were below 4.00 and below 5.00, respectively. Regarding `NC(=O)c1ccc(-n2ccc3ccccc32)c(Cl)c1` [Comparative Example 6, reference compound], the pIC50 in test [1] was below 4.00. In the case of `CC(C)c1nn(-c2ccc(C(N)=O)cc2Cl)c2cccc(-n3cnc(-c4cccnc4)c3)c12` [Example 3, 3-Chloro-4-(3-isopropyl-4-(4-(pyridin-3-yl)-1H-imidazol-1-yl)-1H-indazol-1-yl)benzamide], the pIC50 was 6.13 in test [1] and 6.25 in test [2]. Take `Cc1cc(C(N)=O)ccc1-n1nc(C(C)C)c2c(-n3cnc(-c4cccnc4)c3)cccc21` [Example 4, 4-(3-Isopropyl-4-(4-(pyridin-3-yl)-1H-imidazol-1-yl)-1H-indazol-1-yl)-3-methylbenzamide]: the values for the pIC50 in test [1] and in test [2] were 6.80 and 6.85, respectively. The like results for `CC(C)c1nn(-c2ccc(C(N)=O)cc2Cl)c2cccc(-n3cnc(-c4cnn(C)c4)c3)c12` [Example 5, 3-Chloro-4-(3-isopropyl-4-(4-(1-methyl-1H-pyrazol-4-yl)-1H-imidazol-1-yl)-1H-indazol-1-yl)benzamide] were, in that order, 6.62 and 6.57.

Turning to `CC(C)c1nn(-c2ccc(C(N)=O)nc2)c2cccc(-n3cnc(-c4cnn(C)c4)c3)c12` [Example 7, 5-(3-Isopropyl-4-(4-(1-methyl-1H-pyrazol-4-yl)-1H-imidazol-1-yl)-1H-indazol-1-yl)-2-pyridinecarboxyamide], the pIC50 was 6.43 in test [1] and 5.92 in test [2]. On to `CC(C)Nc1cc(C(N)=O)ccc1-n1nc(C(C)C)c2c(-n3cnc(-c4cccnc4)c3)cccc21` [Example 10, 4-(3-Isopropyl-4-(4-(pyridin-3-yl)-1H-imidazol-1-yl)-1H-indazol-1-yl)-3-(isopropylamino)benzamide], for which the negative-log IC50 (pIC50) in test [1] was 6.60; in test [2], 7.00. For `CC(C)c1nn(-c2ccc(C(N)=O)cc2NC2CCC2)c2cccc(-n3cnc(-c4cccnc4)c3)c12` [Example 11, 3-(Cyclobutylamino)-4-(3-isopropyl-4-(4-(pyridin-3-yl)-1H-imidazol-1-yl)-1H-indazol-1-yl)benzamide], the pIC50 in test [1] was 6.52; in test [2] it was 7.10. On to `CC(C)Nc1cc(C(N)=O)ccc1-n1nc(C(C)C)c2c(-n3cnc(-c4cnn(C)c4)c3)cccc21` [Example 12, 4-(3-Isopropyl-4-(4-(1-methyl-1H-pyrazol-4-yl)-1H-imidazol-1-yl)-1H-indazol-1-yl)-3-(isopropylamino)benzamide], for which the pIC50 in test [1] is 6.92; in test [2], 7.22. Turning to `CC(C)c1nn(-c2ccc(C(N)=O)cc2NC2CCC2)c2cccc(-n3cnc(-c4cnn(C)c4)c3)c12` [Example 13, 3-(Cyclobutylamino)-4-(3-Isopropyl-4-(4-(1-methyl-1H-pyrazol-4-yl)-1H-imidazol-1-yl)-1H-indazol-1-yl)benzamide], the pIC50 in test [1] was 6.70; in test [2] it was 7.22. Turning to `Cn1cc(-c2cn(-c3cccc4c3c(C(F)(F)F)nn4-c3ccc(C(N)=O)c(NC(C)(C)C)c3)cn2)cn1` [Example 14, 2-(Tert-butylamino)-4-(4-(4-(1-methyl-1H-pyrazol-4-yl)-1H-imidazol-1-yl)-3-(trifluoromethyl)-1H-indazol-1-yl)benzamide], the pIC50 in test [1] was 6.57; in test [2], 8.00. As to `CCNc1cc(-n2nc(C(F)(F)F)c3c(-n4cnc(-c5cnn(C)c5)c4)cccc32)ccc1C(N)=O` [Example 15, 2-(Ethylamino)-4-(4-(4-(1-methyl-1H-pyrazol-4-yl)-1H-imidazol-1-yl)-3-(trifluoromethyl)-1H-indazol-1-yl)benzamide], the values for the pIC50 in test [1] and in test [2] were 6.64 and 7.70, respectively. For `CC(C)(C)Nc1cc(-n2nc(C(F)(F)F)c3c(-n4cnc(-c5cccnc5)c4)cccc32)ccc1C(N)=O` [Example 16, 2-(Tert-butylamino)-4-(4-(4-(pyridin-3-yl)-1H-imidazol-1-yl)-3-(trifluoromethyl)-1H-indazol-1-yl)benzamide], the pIC50 was 6.54 in test [1] and 7.52 in test [2].

`Cc1cc(C(N)=O)ccc1-n1nc(C(F)(F)F)c2c(-n3cnc(-c4cccnc4)c3)cccc21` [Example 17, 3-Methyl-4-(4-(4-(pyridin-3-yl)-1H-imidazol-1-yl)-3-(trifluoromethyl)-1H-indazol-1-yl)benzamide]: the pIC50 in test [1] was 6.31; in test [2], 6.52.

Consider `CCc1cc(C(N)=O)ccc1-n1nc(C(F)(F)F)c2c(-n3cnc(-c4cnn(C)c4)c3)cccc21` [Example 18, 3-Ethyl-4-(4-(4-(1-methyl-1H-pyrazol-4-yl)-1H-imidazol-1-yl)-3-(trifluoromethyl)-1H-indazol-1-yl)benzamide], for which the pIC50 in test [1] was 7.05; in test [2], 7.30. As to `CCc1cc(C(N)=O)ccc1-n1nc(C(F)(F)F)c2c(-n3cnc(-c4cccnc4)c3)cccc21` [Example 19, 3-Ethyl-4-(4-(4-(pyridin-3-yl)-1H-imidazol-1-yl)-3-(trifluoromethyl)-1H-indazol-1-yl)benzamide], the pIC50 in test [1] is 6.77; in test [2], 7.00. Take `CC(C)Nc1cc(C(N)=O)ccc1-n1nc(C(F)(F)F)c2c(-n3cnc(-c4cnn(C)c4)c3)cccc21` [Example 20, 3-(Isopropylamino)-4-(4-(4-(1-methyl-1H-pyrazol-4-yl)-1H-imidazol-1-yl)-3-(trifluoromethyl)-1H-indazol-1-yl)benzamide]: the pIC50 was 6.85 in test [1] and 7.05 in test [2]. The like results for `Cn1cc(-c2cn(-c3cccc4c3c(C(F)(F)F)nn4-c3ccc(C(N)=O)cc3NC3CCC3)cn2)cn1` [Example 21, 3-(Cyclobutylamino)-4-(4-(4-(1-methyl-1H-pyrazol-4-yl)-1H-imidazol-1-yl)-3-(trifluoromethyl)-1H-indazol-1-yl)benzamide] were, in that order, 6.82 and 7.15. In the case of `CC(C)Nc1cc(C(N)=O)ccc1-n1nc(C(F)(F)F)c2c(-n3cnc(-c4cccnc4)c3)cccc21` [Example 22, 3-(Isopropylamino)-4-(4-(4-(pyridin-3-yl)-1H-imidazol-1-yl)-3-(trifluoromethyl)-1H-indazol-1-yl)benzamide], the pIC50 in test [1] was 6.85; in test [2], 6.92. Take `NC(=O)c1ccc(-n2nc(C(F)(F)F)c3c(-n4cnc(-c5cccnc5)c4)cccc32)c(NC2CCC2)c1` [Example 23, 3-(Cyclobutylamino)-4-(4-(4-(pyridin-3-yl)-1H-imidazol-1-yl)-3-(trifluoromethyl)-1H-indazol-1-yl)benzamide]: the results for the pIC50 in test [1] and in test [2] were 6.55 and 6.77, respectively. `Cn1cc(-c2cn(-c3cccc4c3c(C(F)(F)F)nn4-c3ccc(C(N)=O)cc3N)cn2)cn1` [Example 24, 3-Amino-4-(4-(4-(1-methyl-1H-pyrazol-4-yl)-1H-imidazol-1-yl)-3-(trifluoromethyl)-1H-indazol-1-yl)benzamide]: the pIC50 is 7.10 in test [1] and 6.89 in test [2]. Regarding `NC(=O)c1ccc(-n2nc(C(F)(F)F)c3c(-n4cnc(-c5cccnc5)c4)cccc32)c(N)c1` [Example 25, 3-Amino-4-(4-(4-(pyridin-3-yl)-1H-imidazol-1-yl)-3-(trifluoromethyl)-1H-indazol-1-yl)benzamide], the figures for the pIC50 in test [1] and in test [2] were 7.00 and 6.77, respectively.
